Assays:
[1] = biological target: T1, GppNHp-loaded KRAS4b (amino acids 1-169) G12C/C118S protein (Homo sapiens, UniProt P01116, C118S/G12C); assay: Covalent cysteine 12 modification by MALDI-TOF MS, GppNHp-loaded KRAS G12C; type: binding; details: 15 minutes reaction time point
T1 construct: KRAS4b (amino acids 1-169) G12C/C118S protein; made in house
In short: (§1)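 Covalent adduct formation measured by linear-mode MALDI-TOF MS as modified peak height over summed peak heights, 15 min time point reported. Reactions: KRAS4b 1-169 G12C/C118S (1 μM, loaded with GppNHp, GTP or GDP) plus compound at 1:2.5 ratio, pH 7.3 HEPES/NaCl/MgCl2, room temperature.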

pERK in NCI-H358 cells = assay: Cell-based pERK HTRF assay (pERK inhibition in H358 cells); details: Homo sapiens, NCI-H358, 0.5 h, 30 min incubation
In short: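 NCI-H358 cells were seeded at 4×10^4 cells/well in RPMI/10% FBS, then treated next day for 30 min at 0.25% DMSO (9-point, 3-fold series from 75 μM). Lysates were read by HTRF (d2/Eu cryptate antibody pair, 615 nm emission) after 4–24 h at room temperature to give pERK IC50.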

[2] = biological target: T2, GTP-loaded KRAS4b (amino acids 1-169) G12C/C118S protein (Homo sapiens, UniProt P01116, C118S/G12C); assay: Covalent cysteine 12 modification by MALDI-TOF MS, GTP-loaded KRAS G12C; type: binding; details: 15 minutes reaction time point
T2 construct: KRAS4b (amino acids 1-169) G12C/C118S protein; made in house
In short: as §1

[3] = biological target: T3, GDP-loaded KRAS4b (amino acids 1-169) G12C/C118S protein (Homo sapiens, UniProt P01116, C118S/G12C); assay: Covalent cysteine 12 modification by MALDI-TOF MS, GDP-loaded KRAS G12C; type: binding; details: 15 minutes reaction time point
T3 construct: KRAS4b (amino acids 1-169) G12C/C118S protein; made in house
In short: as §1

Structure (SMILES) | GppNHp-KRAS G12C percent of modification [1] | IC50 (pERK in NCI-H358 cells) | GTP-KRAS G12C percent of modification [2] | GDP-KRAS G12C percent of modification [3]
C=CC(=O)N1CC[C@@H](N(CC)c2nc(OC[C@]34CCCN3C[C@H](F)C4)nc3c(F)c(-c4ccc(F)c5sc(N)c(C#N)c45)c(C(F)(F)F)cc23)[C@H]1C [Compound 159] | A (percent of modification ≥70%) | < 100 nM | B (50≤percent of modification <70%) | A (percent of modification ≥70%)
C=CC(=O)N1CC[C@@H](N(C)c2nc(OC[C@]34CCCN3C[C@H](OC)C4)nc3c(F)c(-c4ccc(F)c5sc(N)c(C#N)c45)c(Cl)cc23)[C@H]1C [Compound 161] | A (percent of modification ≥70%) | < 100 nM | A (percent of modification ≥70%) | A (percent of modification ≥70%)
C=CC(=O)N1CC[C@@H](N(CC)c2nc(OC[C@@]34CCCN3C[C@H](OC)C4)nc3c(F)c(-c4ccc(F)c5sc(N)c(C#N)c45)c(Cl)cc23)[C@H]1C [Compound 163] | A (percent of modification ≥70%) | < 100 nM | A (percent of modification ≥70%) | A (percent of modification ≥70%)
C=CC(=O)N1CC[C@@H](N(CC)c2nc(OC[C@]34CCCN3C[C@H](OC)C4)nc3c(F)c(-c4ccc(F)c5sc(N)c(C#N)c45)c(Cl)cc23)[C@H]1C [Compound 164] | A (percent of modification ≥70%) | < 100 nM | A (percent of modification ≥70%) | A (percent of modification ≥70%)
C=CC(=O)N1CC[C@@H](N(CC)c2nc(OC[C@]34CCCN3C[C@H](F)C4)nc3c(F)c(-c4ccc(F)c5sc(N)c(C#N)c45)c(Cl)cc23)[C@H]1C [Compound 165] | A (percent of modification ≥70%) | < 100 nM | A (percent of modification ≥70%) | A (percent of modification ≥70%)
C=CC(=O)N1CC[C@@H](N(CC)c2nc(OC[C@]34CCCN3C[C@H](F)C4)nc3cc(-c4ccc(F)c5sc(N)c(C#N)c45)c(F)cc23)[C@H]1C [Compound 167] | A (percent of modification ≥70%) | < 100 nM | A (percent of modification ≥70%) | A (percent of modification ≥70%)
C=CC(=O)N1CC[C@@H](N(CC)c2nc(OC[C@]34CCCN3C[C@H](OC)C4)nc3c(F)c(-c4ccc(F)c5sc(N)c(C#N)c45)ccc23)[C@H]1C [Compound 169] | A (percent of modification ≥70%) | 100 to 1000 nM | A (percent of modification ≥70%) | A (percent of modification ≥70%)
